Assay results from ChEMBL document CHEMBL1201862, “PubChem BioAssay data set” (2004).
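Step 1: Grow cells in 96-well plates. Step 2: Expose to compound for 48 hours at 5 concentrations. Step 3: Interpolate endpoints linearly; if unreached, use highest concentration. GI50 = concentration required for 50% inhibition of growth.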 Activity calls are given as the source filed them. Rule as the data show it: active = GI50 up to about 1.1 µM and inactive = higher.

How the values were obtained:
Experiment in all cases: DTP human tumour cell line panel, 48 h
[1] = system: ACHN
[2] = system: BT-549
[3] = system: DU-145
[4] = system: HCC 2998
[5] = system: HCT-116
[6] = system: HCT-15
[7] = system: HOP-62
[8] = system: HT-29
[9] = system: IGROV-1
[10] = system: K562
[11] = system: Malme-3M
[12] = system: NCI-H226
[13] = system: NCI/ADR-RES
[14] = system: RPMI-8226
[15] = system: SF-268
[16] = system: SK-MEL-28
[17] = system: U-251
[18] = system: UO-31
[19] = system: LOX IMVI

Oc1ccc2ccccc2c1OCc1nnc(CCCCCCCCc2nnc(COc3c(O)ccc4ccccc34)n2Nc2ccccc2)n1Nc1ccccc1
GI50 [1]: 1.23 µM (inactive) | GI50 [2]: 6.19 µM (inactive) | GI50 [3]: 19.7 µM (inactive) | GI50 [4]: 8.05 µM (inactive) | GI50 [5]: 10.9 µM (inactive) | GI50 [6]: 16.5 µM | GI50 [7]: 1.06 µM (active) | GI50 [8]: 10.7 µM (inactive) | GI50 [9]: 7.05 µM (inactive) | GI50 [10]: 0.0407 µM (active) | GI50 [11]: 11.1 µM (inactive) | GI50 [12]: 8.32 µM (inactive) | GI50 [13]: 8.2 µM (inactive) | GI50 [14]: 1.02 µM (active) | GI50 [15]: 6.17 µM (inactive) | GI50 [16]: 5.14 µM (inactive) | GI50 [17]: 19 µM (inactive) | GI50 [18]: 7.46 µM (inactive)

CC(C)(C)CNC(=O)NCn1cc(-c2ccccc2)nn1
GI50 [1]: > 100 µM (inactive) | GI50 [2]: > 100 µM (inactive) | GI50 [3]: > 100 µM (inactive) | GI50 [4]: > 100 µM (inactive) | GI50 [5]: > 100 µM (inactive) | GI50 [6]: > 100 µM | GI50 [7]: > 100 µM (inactive) | GI50 [8]: > 100 µM (inactive) | GI50 [9]: > 100 µM (inactive) | GI50 [10]: > 100 µM (inactive) | GI50 [19]: > 100 µM (inactive) | GI50 [11]: > 100 µM (inactive) | GI50 [12]: 64.6 µM (inactive) | GI50 [13]: > 100 µM (inactive) | GI50 [14]: > 100 µM (inactive) | GI50 [15]: > 100 µM (inactive) | GI50 [16]: > 100 µM (inactive) | GI50 [17]: > 100 µM (inactive)

CCCC(=O)Nc1cc(/C=C/C(=O)N2CC(CCl)c3c2cc([N+](=O)[O-])c2ccccc32)n(C)c1 (stereo not drawn)
GI50 [1]: 1.32 µM (inactive) | GI50 [2]: > 73.3 µM (inactive) | GI50 [3]: 0.632 µM (active) | GI50 [4]: 14.5 µM (inactive) | GI50 [5]: 11.9 µM (inactive) | GI50 [6]: > 4.65 µM | GI50 [7]: > 35.1 µM (inactive) | GI50 [8]: > 100 µM (inactive) | GI50 [9]: > 100 µM (inactive) | GI50 [10]: 0.738 µM (active) | GI50 [12]: > 100 µM (inactive) | GI50 [13]: 8.93 µM (inactive) | GI50 [14]: 0.579 µM (active) | GI50 [15]: > 100 µM (inactive) | GI50 [16]: > 100 µM (inactive) | GI50 [17]: > 63.5 µM (inactive) | GI50 [18]: > 75.3 µM (inactive)

N=C(N)NS(=O)(=O)c1ccc(NC(=O)c2cccc3c(NNc4ccc(C(=O)O)cc4)c4ccccc4nc23)cc1
GI50 [1]: > 100 µM (inactive) | GI50 [2]: > 100 µM (inactive) | GI50 [3]: 48.5 µM (inactive) | GI50 [4]: 52.2 µM (inactive) | GI50 [5]: 59 µM (inactive) | GI50 [6]: > 100 µM | GI50 [7]: > 100 µM (inactive) | GI50 [8]: 41.4 µM (inactive) | GI50 [9]: > 100 µM (inactive) | GI50 [10]: 50.1 µM (inactive) | GI50 [19]: 48.4 µM (inactive) | GI50 [11]: 93.1 µM (inactive) | GI50 [12]: 64 µM (inactive) | GI50 [13]: > 100 µM (inactive) | GI50 [14]: > 100 µM (inactive) | GI50 [15]: 58.7 µM (inactive) | GI50 [16]: > 100 µM (inactive) | GI50 [17]: 34.6 µM (inactive) | GI50 [18]: 32.7 µM (inactive)

Cc1c(CCOC=O)c(=O)[nH]c2nncn12
GI50 [1]: > 100 µM (inactive) | GI50 [2]: > 100 µM (inactive) | GI50 [3]: > 100 µM (inactive) | GI50 [4]: > 100 µM (inactive) | GI50 [5]: > 100 µM (inactive) | GI50 [6]: > 100 µM | GI50 [7]: > 100 µM (inactive) | GI50 [8]: > 100 µM (inactive) | GI50 [9]: > 100 µM (inactive) | GI50 [10]: > 100 µM (inactive) | GI50 [19]: > 100 µM (inactive) | GI50 [11]: > 100 µM (inactive) | GI50 [12]: > 100 µM (inactive) | GI50 [13]: > 100 µM (inactive) | GI50 [14]: > 100 µM (inactive) | GI50 [15]: > 100 µM (inactive) | GI50 [16]: > 100 µM (inactive) | GI50 [17]: > 100 µM (inactive) | GI50 [18]: > 100 µM (inactive)

N=c1oc2ccc([N+](=O)[O-])cc2cc1C(=O)Nc1ccccn1
GI50 [1]: 35.5 µM (inactive) | GI50 [2]: 48.4 µM (inactive) | GI50 [3]: 60.4 µM (inactive) | GI50 [4]: 91.4 µM (inactive) | GI50 [5]: 32.4 µM (inactive) | GI50 [6]: 44.3 µM | GI50 [7]: 25.3 µM (inactive) | GI50 [8]: 49.8 µM (inactive) | GI50 [9]: 31.7 µM (inactive) | GI50 [10]: > 100 µM (inactive) | GI50 [19]: 33.5 µM (inactive) | GI50 [11]: 21.7 µM (inactive) | GI50 [12]: 71.9 µM (inactive) | GI50 [13]: 97.3 µM (inactive) | GI50 [14]: 54.2 µM (inactive) | GI50 [15]: 34.8 µM (inactive) | GI50 [16]: 28.8 µM (inactive) | GI50 [17]: 45.5 µM (inactive)

CCCCC(=O)NC1(c2cc3ccccc3s2)CCCCC1
GI50 [1]: > 100 µM (inactive) | GI50 [2]: > 100 µM (inactive) | GI50 [3]: > 100 µM (inactive) | GI50 [4]: > 100 µM (inactive) | GI50 [5]: > 100 µM (inactive) | GI50 [6]: > 100 µM | GI50 [7]: > 100 µM (inactive) | GI50 [8]: > 100 µM (inactive) | GI50 [9]: > 100 µM (inactive) | GI50 [10]: > 100 µM (inactive) | GI50 [19]: > 100 µM (inactive) | GI50 [11]: > 100 µM (inactive) | GI50 [12]: > 100 µM (inactive) | GI50 [13]: > 100 µM (inactive) | GI50 [14]: 8.81 µM (inactive) | GI50 [15]: > 100 µM (inactive) | GI50 [16]: > 100 µM (inactive) | GI50 [17]: > 100 µM (inactive) | GI50 [18]: > 100 µM (inactive)
